Test results reported in US20070166710A1, “Methods for inhibiting adipogenesis and for treating type 2 diabetes” (priority 2003, published 2007).

Legend:
[1] = tested on: Foxa-2; assay: Immunoblot of phospho-TI56 Foxa-2 in livers after intraportal insulin; type: in vivo, mice
Protocol: FIG. 15a is an immunoblot of Foxa-2 and Foxo-1 in liver nuclear extracts of fed (n=3) and starved (n=3) mice. Anti-TATA binding protein (Tbp) antibodies were used as a loading control. FIGS. 15b and 15c are immunoblots of Foxa-2 and Foxo-1 in nuclear extracts of livers from mice perfused with different concentrations of insulin. FIG. 15d is a Western blot of Foxa-2 immunoprecipitated with anti-Foxa-2 antibodies from whole cell extracts of livers obtained from fasted mice 30 minutes after injection of 10 ng insulin or PBS in the portal vein. Samples (n=3 for each group) were analyzed by immunoblot analysis with an antibody directed against phospho-TI56 Foxa-2 (top panel) or with an antibody directed against total Foxa-2 protein (bottom panel). […]
(§1) The role of Foxa-2 in the regulation of liver gene expression by nutritional status was examined by determining the intracellular localization of Foxa-2 in fasted and fed mice by Western blotting of Foxa-2 in liver nuclear extracts and by immunohistochemistry. […] Strong Foxa-2 immunostaining was detected in hepatocyte nuclei of control (PBS) mice. […] Foxa-2 protein levels were measured in liver nuclei of C57/B6 mice that were perfused with a buffer containing a range of insulin concentrations that included fasting and postprandial insulin levels (0.2 and 4.0 ng/ml, respectively). […] Foxa-2 levels were determined by immunoblotting. […]

[2] = tested on: Foxa-2 expression; assay: Foxa-2 expression in primary adipocytes from ob/ob mice, semiquantitative RT-PCR; type: cell-based; conditions: insulin 100 μM as printed, prolonged culturing (24 and 60 hours)
Protocol: Total RNA was extracted from cells and EBs using Trizol following manufacturer's instructions (Life Technologies, Inc.). […] The cDNAs provided templates for polymerase chain reactions (PCRs) using specific primers at annealing temperatures ranging between 60 and 65° C. in the presence of dNTPs, [α^-32P]dCTP, and Taq DNA polymerase. […] Primary adipocytes were isolated as described by Rodbell (1964) J. Biol. Chem. 239:375-380. […] (1995) J. Cell. Biochem. 58:435-463. The reaction was stopped by spinning through dinonyl […] oil and the radioactivity quantified by scintillation counting. […] (1995) Am. J. Physiol. 268:[…]-[…]. Fatty acid de novo synthesis was analyzed by saponification of total lipids as described by […] et al. (1978) J. […] Incorporation into lipid glycerol was calculated by subtracting fatty acid radioactive label from total lipid radioactive label. Primary adipocytes were isolated from ob/ob mice and cultured in MEM medium (control) or in the presence of insulin (100 μM; 24 hours and 60 hours, respectively) or rosiglitazone (50 μM), WY14,643 (100 μM), dexamethason (1 μM), leptin (100 ng/ml), TNF-α, (5 ng/ml), adiponectin (500 ng/ml) and glucagons (100 nM) for 60 hours. Gene expression was measured by semiquantitative RT-PCR. Steady state mRNA levels of Hprt were used as a control and indicate that each lane contains similar amounts of rnRNA. Reactions were also assayed in the absence of reverse transcriptase, showing that mRNA was not contaminated with genomic DNA.

[3] = tested on: Foxa-2; assay: Nuclear Foxa-2 in perfused livers, immunoblotting; type: in vivo, mice
[4] = tested on: Foxa-2; assay: Intracellular localization of Foxa-2 in hepatocytes after insulin injection into the portal vein; type: in vivo, mice
Protocol: Cryosections of livers ([…]) were fixed for 15 min at RT with 4% paraformaldehyde. For immunofluorescent detection of Foxa-2 or HA-Foxa-2, fixed sections were incubated with either anti-Foxa-2 antibody (1:100) or anti-HA antibody (Convance) (1:1000) overnight at 4° C. After washing, sections were treated with secondary antibody linked to Alexa Fluor 488 (Molecular Probes). For nuclear counterstaining, TOPRO-3 dye (Molecular Probes) was used. Immunofluorescent staining was visualized using laser-scanning micrsocopy.
as §1, with “immunohistochemistry. In fed mice, nuclear Foxa-2 levels were low, whereas after an overnight fast Foxa-2 expression in liver nuclei increased ^˜4 to 5-fold (FIG. 15a).” for “immunohistochemistry.”

Substance: insulin: Insulin was from Sigma; hormone used as stimulus
- phosphorylated Foxa-2 detected by anti-phospho TI56 peptide antibody ([1]; intraportal injection of insulin vs PBS): recognized phosphorylated Foxa-2
- Foxa-2 protein levels (anti-Foxa-2 antibodies) ([1]; treated vs untreated livers): the same
- Foxa-2 expression [2]: strong increase
- increase in nuclear Foxa-2 levels ([3]; in response to insulin stimulation, within 5-20 minutes): > 20 fold
- change in nuclear Foxa-2 expression ([3]; livers exposed to low (fasting) vs high (postprandial) insulin levels): > 20 fold
- nuclear Foxa-2 level ([3]; perfusion with 2.0 ng/ml insulin, 20 minutes): barely detectable levels
- nuclei from which Foxa-2 was excluded ([4]; 20 ng/ml insulin into the portal vein of fasted mice, after 5 minutes): ~80%
- localization of Foxa-2 in hepatocytes ([4]; 15 minutes after insulin administration): located exclusively in the cytoplasm of all hepatocytes
